Values quoted from earlier work in patent US20100028432A1, “FORMULATIONS OF ACTIVE PRINCIPLES INCORPORATED IN SLNS SUITABLE FOR TRANSDERMAL ADMINISTRATION” (NANOVECTOR S.R.L., priority 2006, published 2010).

What was measured:
[1] = intravenous bolus injection
[2] = administered orally
[3] = transdermal systems of U.S. Pat. No. 5,508,039 containing melatonin powder and an absorption enhancer; in vitro tests
[4] = in vivo

half-life [1]	bioavailability [2]	plasma clearance ([2]; marked first-pass hepatic metabolism)	half-life of melatonin [3] [h]	elimination time [4]	SMILES
around 40 minutes	low and variable bioavailability	rapid plasma clearance	≤ 2	–	COc1ccc2[nH]cc(CCNC(C)=O)c2c1 [melatonin, N-acetyl-5-methoxytryptamine]
–	–	–	–	about 33 minutes	CN1CCc2cccc3c2[C@H]1Cc1ccc(O)c(O)c1-3 [Apomorphine]
